Measured values reported in patent US20230338568A1, “NOVEL ISOMERIC COMPOUNDS COMPRISING A RING-OPENED THIOSUCCINIMIDE GROUP, AN OLIGOPEPTIDE FRAGMENT AND A CHIRAL MOIETY” (priority 2020, published 2023).

What was measured:
[1] = system: HER2 positive cell HCC1954; test: Cytotoxicity of α-ADCs in HER2 positive cell HCC1954 (CellTiter-Glo); type: cell-based, Human; settings: HER2 positive HCC1954, 72 h
Description: (§1) Cell viability is tested using CellTiter-Glo® Luminescent Kit (Promega, Cat.# G7573) read by a Biotek Cytation3 Imaging reader.
(§2) Study design was shown as in Table 21 and Table 22. […] Cell vitality formula: Viability = (RLU (X) - RLU (Puro))/(RLU (Control) - RLU (Puro)) ^∗ 100%. A logistic model (4-parameter) will be used for data processing, IC50 calculation and curve fitting by Prism 6 software.

[2] = system: HER2 negative cell MDA-MB-468; test: Cytotoxicity of α-ADCs in HER2 negative cell MDA-MB-468 (CellTiter-Glo); type: cell-based; settings: HER2 negative MDA-MB-468, 72 h
Description: as §1, §2

Q: Which IC50 [1] does the source give for COc1cc2cc(c1Cl)N(C)C(=O)C[C@H](OC(=O)[C@H](C)N(C)C(=O)CCS)[C@]1(C)O[C@H]1[C@H](C)[C@@H]1C[C@@](O)(NC(=O)O1)[C@H](OC)/C=C/C=C(\C)C2 [DM1] here?
A: 4.2 nM

Q: And the IC50 [2]?
A: 1.5 nM
